Data reported in patent publication US20250325552A1, “SUBSTITUTED THIADIAZOLYL DERIVATIVES AS DNA POLYMERASE THETA INHIBITORS” (IDEAYA Biosciences, Inc., priority 2020, published 2025).

Each molecule was assayed against Polθ theta (1-899) (hPolQ) (Homo sapiens (Human), UniProt O75417) (assay: Biological Assay 1: Polθ ATPase activity, NADH oxidation-coupled enzymatic assay (10 nM enzyme, 30 min)). Conditions: Polθ (1-899) 10 nM, 100 μM ATP, 300 nM dT50 ssDNA; Examples 1 to 268; read-out: ATPase NADH coupling:Standard Screening:hPolQ IC50.
Chain of Polθ theta (1-899) (hPolQ) (O75417 1-899): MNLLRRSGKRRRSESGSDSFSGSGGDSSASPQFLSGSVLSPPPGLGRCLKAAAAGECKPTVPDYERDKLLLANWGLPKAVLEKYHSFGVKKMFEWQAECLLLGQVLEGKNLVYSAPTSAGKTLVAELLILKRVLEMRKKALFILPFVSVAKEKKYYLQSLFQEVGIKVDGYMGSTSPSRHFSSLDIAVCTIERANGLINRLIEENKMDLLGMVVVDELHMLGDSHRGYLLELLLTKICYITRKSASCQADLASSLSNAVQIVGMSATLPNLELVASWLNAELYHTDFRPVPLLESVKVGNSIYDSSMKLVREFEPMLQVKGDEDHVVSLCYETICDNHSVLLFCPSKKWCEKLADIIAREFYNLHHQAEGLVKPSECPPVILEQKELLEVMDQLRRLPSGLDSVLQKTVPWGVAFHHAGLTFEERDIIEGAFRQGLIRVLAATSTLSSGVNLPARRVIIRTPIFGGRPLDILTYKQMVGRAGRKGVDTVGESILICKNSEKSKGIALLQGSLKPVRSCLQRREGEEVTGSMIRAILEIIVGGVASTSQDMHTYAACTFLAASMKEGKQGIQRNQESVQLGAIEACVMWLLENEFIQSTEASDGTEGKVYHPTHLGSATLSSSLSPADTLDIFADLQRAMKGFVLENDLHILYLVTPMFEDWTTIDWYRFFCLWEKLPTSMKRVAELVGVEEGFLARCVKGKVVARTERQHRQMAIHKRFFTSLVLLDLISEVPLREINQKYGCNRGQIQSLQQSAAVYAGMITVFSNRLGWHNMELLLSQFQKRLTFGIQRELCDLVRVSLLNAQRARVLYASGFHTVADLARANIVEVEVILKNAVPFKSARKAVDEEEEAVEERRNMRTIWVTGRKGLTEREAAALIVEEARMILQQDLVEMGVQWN
Assay type: biochemical
Protocol: The ability of the compounds of Formula (I), (II), (III), (IV), or Table 1 (Examples 1 to Example 268) to inhibit ATPase activity of Polθ theta (1-899) was determined using the assay described below.
Polθ Theta ATPase activity was determined by measuring the rate of ATP turn over in a NADH oxidation-coupled enzymatic assay. 10-point dilution series of compounds were used in a 384 well format for the inhibition assays. Polθ theta (1-899) (10 nM) in assay buffer (20 mM Tris HCl (pH 7.80), 80 mM KCl, 10 mM MgCl2, 1 mM DTT, 0.01% BSA, 0.01% Tween, 5% glycerol) was transferred to the test wells (20 μL), except the low control wells (20 μL of assay buffer was added to the low control wells). The plate was then incubated at room temperature for 15 min. An equal volume (20 μL) of 100 μM ATP, 300 nM dT50 (single-stranded DNA (ssDNA) containing 50 thymine bases), 300 μM NADH, 6 mM PEP, 10 U/mL lactate dehydrogenase and U/mL pyruvate kinase in assay buffer was added to all the test wells. The plate was then centrifuged at 1000 rpm for 1 min. The reaction was monitored for 30 min by measuring absorbance (λ=340 nm) in a Tecan Spark multimode plate reader every minute. The high control (DMSO with enzyme) with low absorbance intensity represents no inhibition of ATPase reaction while the low control (DMSO with buffer) with high absorbance intensity represents full inhibition of ATPase activity. Slope of the reaction progress curves were used to calculate the rate of ATP hydrolysis. The rates were used to determine the percent inhibition using a four-parameter inhibition model to generate IC50, Hill slope and max inhibition.

`COc1ccccc1-c1cc(C)ncc1C(=O)Nc1nnc(OCc2cccc(CO)n2)s1` [Example 6, N-(5-((6-(hydroxymethyl)pyridin-2-yl)methoxy)-1,3,4-thiadiazol-2-yl)-4-(2-methoxyphenyl)-6-methylpyridine-3-carboxamide] and `COc1ccccc1-c1cc(C)ncc1C(=O)Nc1nnc(OCc2ccc(C3(CO)CC3)cn2)s1` [Example 7, N-(5-((5-(1-(hydroxymethyl)cyclopropyl)pyridin-2-yl)methoxy)-1,3,4-thiadiazol-2-yl)-4-(2-methoxyphenyl)-6-methylnicotinamide] cannot be ordered by IC50: ≤ 200 nM for the first, ≤ 200 nM for the second.

`COc1cnc(Cl)cc1-c1cc(C)ncc1C(=O)Nc1nnc(OCc2ccc(Cl)cn2)s1` [Example 8, 2′-chloro-N-(5-((5-chloropyridin-2-yl)methoxy)-1,3,4-thiadiazol-2-yl)-5′-methoxy-6-methyl-[4,4′-bipyridine]-3-carboxamide] and `COc1ccc(F)cc1-c1cc(C)ncc1C(=O)Nc1nnc(OCc2ccc(Cl)cn2)s1` [Example 13, N-(5-((5-chloropyridin-2-yl)methoxy)-1,3,4-thiadiazol-2-yl)-4-(5-fluoro-2-methoxyphenyl)-6-methylnicotinamide] cannot be ordered by IC50: ≤ 200 nM for the first, ≤ 200 nM for the second.

First: COc1ccccc1-c1nc2cccnc2cc1C(=O)Nc1nnc(OCc2ccc(Cl)cn2)s1 [Example 9, N-(5-((5-chloropyridin-2-yl)methoxy)-1,3,4-thiadiazol-2-yl)-2-(2-methoxyphenyl)-1,5-naphthyridine-3-carboxamide]
Second: COc1c(F)cccc1-c1cc(C)ncc1C(=O)Nc1nnc(OCc2ccc(Cl)cn2)s1 [Example 16, N-(5-((5-chloropyridin-2-yl)methoxy)-1,3,4-thiadiazol-2-yl)-4-(3-fluoro-2-methoxyphenyl)-6-methylnicotinamide]
The IC50 of the first is higher: 1000 to 10000 nM for the first, ≤ 200 nM for the second.

First: COc1ccccc1-c1cc(C)ncc1C(=O)Nc1nnc(OCc2nccc3[nH]ncc23)s1 [Example 10, N-(5-((1H-pyrazolo(4,3-c)pyridin-4-yl)methoxy)-1,3,4-thiadiazol-2-yl)-4-(2-methoxyphenyl)-6-methylnicotinamide]
Second: COc1ccccc1-c1cc(C)ncc1C(=O)Nc1nnc(O[C@@H](C)c2ccc(Cl)cn2)s1 [Example 11, (S)—N-(5-(1-(5-chloropyridin-2-yl)ethoxy)-1,3,4-thiadiazol-2-yl)-4-(2-methoxyphenyl)-6-methylnicotinamide]
The IC50 of the first is higher: 500 to 1000 nM for the first, ≤ 200 nM for the second.

Compared with `COc1ccccc1-c1cc(C)ncc1C(=O)Nc1nnc(O[C@H](C)c2ccc(Cl)cn2)s1` [Example 12, (R)—N-(5-(1-(5-chloropyridin-2-yl)ethoxy)-1,3,4-thiadiazol-2-yl)-4-(2-methoxyphenyl)-6-methylnicotinamide], `Cc1cc(-c2ccccc2OC(F)F)c(C(=O)Nc2nnc(OCc3ccc(CO)cn3)s2)cn1` [Example 17, 4-(2-(difluoromethoxy)phenyl)-N-(5-((5-(hydroxymethyl)pyridin-2-yl)methoxy)-1,3,4-thiadiazol-2-yl)-6-methylpyridine-3-carboxamide] is lower in IC50: 1000 to 10000 nM for the first, ≤ 200 nM for the second.

`COc1cccc(F)c1-c1cc(C)ncc1C(=O)Nc1nnc(OCc2ccc(CO)cn2)s1` [Example 14, 4-(2-fluoro-6-methoxyphenyl)-N-(5-((5-(hydroxymethyl)pyridin-2-yl)methoxy)-1,3,4-thiadiazol-2-yl)-6-methylpyridine-3-carboxamide] and `COc1cccc(F)c1-c1cc(C)ncc1C(=O)Nc1nnc(OCc2ccn(C)n2)s1` [Example 15, 4-(2-fluoro-6-methoxyphenyl)-6-methyl-N-(5-((1-methylpyrazol-3-yl)methoxy)-1,3,4-thiadiazol-2-yl)pyridine-3-carboxamide] cannot be ordered by IC50: ≤ 200 nM for the first, ≤ 200 nM for the second.

`Cc1cc(C2CCOCC2)c(C(=O)Nc2nnc(OCc3ccc(Cl)cn3)s2)cn1` [Example 18, N-(5-((5-chloropyridin-2-yl)methoxy)-1,3,4-thiadiazol-2-yl)-6-methyl-4-(tetrahydro-2H-pyran-4-yl)nicotinamide] showed an IC50 of 1000 to 10000 nM.
